# Measurements as given in ChEMBL document CHEMBL1201862, “PubChem BioAssay data set” (2004).
# Activity calls are given as the source filed them.
# Legend:
# [1] = molecular target: T1, Calpain-2 catalytic subunit (Sus scrofa, UniProt P43367); experiment: pig calpain II inhibitor potency, dose response, biochemical, fluorogenic peptide substrate (AID 1420); type: functional
# T1 sequence (P43367 whole entry): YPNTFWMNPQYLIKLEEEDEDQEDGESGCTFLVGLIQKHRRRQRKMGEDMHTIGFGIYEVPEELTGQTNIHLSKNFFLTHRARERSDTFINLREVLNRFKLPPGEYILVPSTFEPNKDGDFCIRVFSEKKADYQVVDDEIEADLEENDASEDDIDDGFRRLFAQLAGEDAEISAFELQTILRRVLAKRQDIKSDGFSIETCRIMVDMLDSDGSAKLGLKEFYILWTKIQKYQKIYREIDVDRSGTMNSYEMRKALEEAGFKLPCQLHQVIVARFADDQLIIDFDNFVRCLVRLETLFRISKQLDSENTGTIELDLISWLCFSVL
# [2] = Luminescence Cell-Based Dose Confirmation HTS to Identify Activators of 5'UTR Stem-Loop Driven Alpha-Synuclein mRNA Translation in H4 Neuroglioblastoma Cells. [Related pubchem assays: 1829 (Project Summary), 1814 (Primary HTS)]; type: functional
# H4 = experiment: Luminescence Cell-Based Dose Response HTS to Identify Activators of 5'UTR Stem-Loop Driven Prion Protein mRNA Translation in H4 Neuroglioblastoma Cells. [Related pubchem assays: 1829 (Project Summary), 1814 (Primary HTS)]; type: functional; conditions: Homo sapiens
# [3] = Luminescence Cell-Based Dose Response HTS to Identify Activators of Luciferase Translation or Activity in H4 […] Cells. [Related pubchem assays: 1829 (Project Summary), 1814 (Primary HTS)]; type: functional
# Cytochrome P450 3A4 = Cytochrome P450 3A4 (Homo sapiens, UniProt P08684); conditions: Potency;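 note: confirmatory qHTS run detecting inhibitors and substrates of CYP3A4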
# [4] = molecular target: T2, Ubiquitin-conjugating enzyme E2 N (Homo sapiens, UniProt P61088); type: functional;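 note: Dose-response confirmation in a TR-FRET assay detecting UBC13-driven polyubiquitin chain formation, inhibition measured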
# T2 sequence (P61088 whole entry): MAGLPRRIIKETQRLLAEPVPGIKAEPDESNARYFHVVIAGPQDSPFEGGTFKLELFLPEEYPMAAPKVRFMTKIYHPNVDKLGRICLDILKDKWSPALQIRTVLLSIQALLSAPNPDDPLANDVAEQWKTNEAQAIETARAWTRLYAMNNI
# [5] = molecular target: T3, Short transient receptor potential channel 4 (Mus musculus, UniProt Q9QUQ5); experiment: mouse TRPC4 channel activators, dose response, cell-based, HEK293 TRPC4/mu-opioid, Fluo-4 calcium (AID 434937); type: functional
# T3 sequence (Q9QUQ5 whole entry): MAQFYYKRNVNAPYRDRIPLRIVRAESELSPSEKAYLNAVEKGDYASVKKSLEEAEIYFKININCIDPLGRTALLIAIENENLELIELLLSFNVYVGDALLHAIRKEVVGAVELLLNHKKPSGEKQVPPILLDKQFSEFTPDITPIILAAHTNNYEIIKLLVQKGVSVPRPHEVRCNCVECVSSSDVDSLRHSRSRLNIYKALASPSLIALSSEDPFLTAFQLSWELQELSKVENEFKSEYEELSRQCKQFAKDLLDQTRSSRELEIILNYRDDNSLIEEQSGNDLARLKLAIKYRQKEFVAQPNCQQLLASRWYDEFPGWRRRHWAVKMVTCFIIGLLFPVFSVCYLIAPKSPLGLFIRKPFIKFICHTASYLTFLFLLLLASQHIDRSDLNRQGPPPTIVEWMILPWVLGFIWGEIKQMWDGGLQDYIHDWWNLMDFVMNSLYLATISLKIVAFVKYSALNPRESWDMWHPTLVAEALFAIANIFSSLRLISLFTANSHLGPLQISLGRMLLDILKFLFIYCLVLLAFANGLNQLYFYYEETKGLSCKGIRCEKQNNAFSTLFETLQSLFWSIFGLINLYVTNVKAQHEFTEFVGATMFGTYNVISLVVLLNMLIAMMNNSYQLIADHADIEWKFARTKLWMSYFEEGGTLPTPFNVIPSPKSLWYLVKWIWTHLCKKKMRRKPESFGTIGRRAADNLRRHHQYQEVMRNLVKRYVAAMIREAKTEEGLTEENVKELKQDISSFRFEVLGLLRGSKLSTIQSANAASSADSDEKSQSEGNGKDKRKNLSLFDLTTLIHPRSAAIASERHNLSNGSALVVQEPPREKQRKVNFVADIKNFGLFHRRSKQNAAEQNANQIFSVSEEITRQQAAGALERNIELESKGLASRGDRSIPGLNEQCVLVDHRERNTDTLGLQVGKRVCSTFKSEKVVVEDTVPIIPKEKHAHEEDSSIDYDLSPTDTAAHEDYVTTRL
# Fatty acid synthase [6] = molecular target: T4, Fatty acid synthase (Homo sapiens, UniProt P49327); experiment: FAS thioesterase domain inhibitors, dose response, biochemical, endpoint fluorescence intensity, uHTS hits (AID 624327); type: functional;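 note: fluorescence from hydrolysis of an O-methyl fluorescein acyl ester substrate by the enzyme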
# [7] = inhibitors of intracellular T. cruzi replication, confirmation, NIH3T3 host cells, beta-gal luminescence (AID 2044); type: functional, cell-based;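 note: intracellular parasites grown in NIH/3T3 mouse fibroblasts as host cells; luminescent beta-galactosidase reporter signal from transgenic T. cruzi replicating inside host cells; inhibitors lower the luminescence signal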
# Fatty acid synthase [8] = molecular target: T4, Fatty acid synthase; experiment: FAS thioesterase domain inhibitors, dose response, biochemical, kinetic fluorescence intensity (AID 624326); type: functional;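 note: rate of fluorescence rise from hydrolysis of a fluorogenic O-methyl fluorescein ester substrate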
# [9] = HEp-2 cell cytotoxicity, dose response, cytotoxicity control for RSV inhibitor project, HTS (AID 2410); type: functional; conditions: human respiratory syncytial virus
# [10] = cytotoxicity toward NIH3T3 fibroblasts, dose response, counter-screen, cell-based, ATP luminescence, mouse fibroblasts (AID 2010); type: functional;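 note: cells exposed to compound for about 90 hours before reading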
# [11] = Shn3 3'UTR reporter inhibitors, dose response, cell-based, Clone20 osteoblasts, firefly luciferase, cherry-picked (AID 624132); type: functional;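 note: firefly luciferase luminescence from reporter carrying the Shn3 3'UTR in osteoblasts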
# [12] = HepG2 cell cytotoxicity, dose response, cytotoxicity control for Shn3 inhibitor project, CellTiter-Glo, cherry-picked (AID 624134); type: functional, cell-based
# [13] = control 3'UTR Renilla luciferase suppression, dose response, counter-screen for Shn3 inhibitor project, cell-based, Clone20-Shn3RL, cherry-picked (AID 624133); type: functional
# Paired box protein Pax-8 = Paired box protein Pax-8 (Homo sapiens, UniProt Q06710); experiment: inhibitors of PAX8-driven TPO luciferase reporter, dose response, RMG-I cells, cherry-pick (AID 687027); type: functional, cell-based;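 note: luciferase reporter driven by Pax8 target thyroperoxidase promoter measured by SteadyGlo luminescence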
# [14] = Luminescence Cell-Based Dose Confirmation HTS to Identify Inhibitors of Platelet Dense Granule Release. [Related pubchem assays: 1663 (Primary HTS), 1678 (Summary of Project)]; type: functional
# [15] = molecular target: Luciferin 4-monooxygenase (Photinus pyralis, UniProt P08659); experiment: firefly luciferase enzyme inhibitors, dose response, biochemical, luminescence (AID 1891)
# Chain of Luciferin 4-monooxygenase (P08659 whole entry): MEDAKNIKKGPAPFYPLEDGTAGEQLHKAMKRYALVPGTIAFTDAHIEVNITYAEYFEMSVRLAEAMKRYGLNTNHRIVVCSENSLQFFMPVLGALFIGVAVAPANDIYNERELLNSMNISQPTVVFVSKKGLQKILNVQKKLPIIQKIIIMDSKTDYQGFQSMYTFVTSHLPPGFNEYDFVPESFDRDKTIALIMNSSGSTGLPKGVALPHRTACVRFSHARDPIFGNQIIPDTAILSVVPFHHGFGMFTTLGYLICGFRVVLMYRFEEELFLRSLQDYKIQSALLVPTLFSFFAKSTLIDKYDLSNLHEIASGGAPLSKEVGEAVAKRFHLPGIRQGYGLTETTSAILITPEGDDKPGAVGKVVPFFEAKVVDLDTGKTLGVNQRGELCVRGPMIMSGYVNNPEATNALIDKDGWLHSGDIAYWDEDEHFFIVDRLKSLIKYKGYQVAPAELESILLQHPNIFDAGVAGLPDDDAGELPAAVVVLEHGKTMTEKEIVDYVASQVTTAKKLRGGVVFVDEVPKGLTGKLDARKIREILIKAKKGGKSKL
# Chain of Cytochrome P450 3A4 (P08684 whole entry): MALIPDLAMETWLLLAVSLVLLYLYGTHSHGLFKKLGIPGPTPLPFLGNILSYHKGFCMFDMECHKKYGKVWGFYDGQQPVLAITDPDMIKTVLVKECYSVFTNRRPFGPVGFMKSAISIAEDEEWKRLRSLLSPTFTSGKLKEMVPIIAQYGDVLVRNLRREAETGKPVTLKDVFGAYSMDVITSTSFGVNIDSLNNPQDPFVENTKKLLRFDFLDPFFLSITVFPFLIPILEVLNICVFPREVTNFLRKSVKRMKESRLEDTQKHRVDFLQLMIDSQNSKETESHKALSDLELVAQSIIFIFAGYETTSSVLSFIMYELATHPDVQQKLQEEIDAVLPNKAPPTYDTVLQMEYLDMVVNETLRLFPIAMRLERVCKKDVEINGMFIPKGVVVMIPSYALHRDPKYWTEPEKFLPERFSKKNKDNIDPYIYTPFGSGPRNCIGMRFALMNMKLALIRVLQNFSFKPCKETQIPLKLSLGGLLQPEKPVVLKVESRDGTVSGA
# T4 sequence (P49327 whole entry, the tested form may be a part): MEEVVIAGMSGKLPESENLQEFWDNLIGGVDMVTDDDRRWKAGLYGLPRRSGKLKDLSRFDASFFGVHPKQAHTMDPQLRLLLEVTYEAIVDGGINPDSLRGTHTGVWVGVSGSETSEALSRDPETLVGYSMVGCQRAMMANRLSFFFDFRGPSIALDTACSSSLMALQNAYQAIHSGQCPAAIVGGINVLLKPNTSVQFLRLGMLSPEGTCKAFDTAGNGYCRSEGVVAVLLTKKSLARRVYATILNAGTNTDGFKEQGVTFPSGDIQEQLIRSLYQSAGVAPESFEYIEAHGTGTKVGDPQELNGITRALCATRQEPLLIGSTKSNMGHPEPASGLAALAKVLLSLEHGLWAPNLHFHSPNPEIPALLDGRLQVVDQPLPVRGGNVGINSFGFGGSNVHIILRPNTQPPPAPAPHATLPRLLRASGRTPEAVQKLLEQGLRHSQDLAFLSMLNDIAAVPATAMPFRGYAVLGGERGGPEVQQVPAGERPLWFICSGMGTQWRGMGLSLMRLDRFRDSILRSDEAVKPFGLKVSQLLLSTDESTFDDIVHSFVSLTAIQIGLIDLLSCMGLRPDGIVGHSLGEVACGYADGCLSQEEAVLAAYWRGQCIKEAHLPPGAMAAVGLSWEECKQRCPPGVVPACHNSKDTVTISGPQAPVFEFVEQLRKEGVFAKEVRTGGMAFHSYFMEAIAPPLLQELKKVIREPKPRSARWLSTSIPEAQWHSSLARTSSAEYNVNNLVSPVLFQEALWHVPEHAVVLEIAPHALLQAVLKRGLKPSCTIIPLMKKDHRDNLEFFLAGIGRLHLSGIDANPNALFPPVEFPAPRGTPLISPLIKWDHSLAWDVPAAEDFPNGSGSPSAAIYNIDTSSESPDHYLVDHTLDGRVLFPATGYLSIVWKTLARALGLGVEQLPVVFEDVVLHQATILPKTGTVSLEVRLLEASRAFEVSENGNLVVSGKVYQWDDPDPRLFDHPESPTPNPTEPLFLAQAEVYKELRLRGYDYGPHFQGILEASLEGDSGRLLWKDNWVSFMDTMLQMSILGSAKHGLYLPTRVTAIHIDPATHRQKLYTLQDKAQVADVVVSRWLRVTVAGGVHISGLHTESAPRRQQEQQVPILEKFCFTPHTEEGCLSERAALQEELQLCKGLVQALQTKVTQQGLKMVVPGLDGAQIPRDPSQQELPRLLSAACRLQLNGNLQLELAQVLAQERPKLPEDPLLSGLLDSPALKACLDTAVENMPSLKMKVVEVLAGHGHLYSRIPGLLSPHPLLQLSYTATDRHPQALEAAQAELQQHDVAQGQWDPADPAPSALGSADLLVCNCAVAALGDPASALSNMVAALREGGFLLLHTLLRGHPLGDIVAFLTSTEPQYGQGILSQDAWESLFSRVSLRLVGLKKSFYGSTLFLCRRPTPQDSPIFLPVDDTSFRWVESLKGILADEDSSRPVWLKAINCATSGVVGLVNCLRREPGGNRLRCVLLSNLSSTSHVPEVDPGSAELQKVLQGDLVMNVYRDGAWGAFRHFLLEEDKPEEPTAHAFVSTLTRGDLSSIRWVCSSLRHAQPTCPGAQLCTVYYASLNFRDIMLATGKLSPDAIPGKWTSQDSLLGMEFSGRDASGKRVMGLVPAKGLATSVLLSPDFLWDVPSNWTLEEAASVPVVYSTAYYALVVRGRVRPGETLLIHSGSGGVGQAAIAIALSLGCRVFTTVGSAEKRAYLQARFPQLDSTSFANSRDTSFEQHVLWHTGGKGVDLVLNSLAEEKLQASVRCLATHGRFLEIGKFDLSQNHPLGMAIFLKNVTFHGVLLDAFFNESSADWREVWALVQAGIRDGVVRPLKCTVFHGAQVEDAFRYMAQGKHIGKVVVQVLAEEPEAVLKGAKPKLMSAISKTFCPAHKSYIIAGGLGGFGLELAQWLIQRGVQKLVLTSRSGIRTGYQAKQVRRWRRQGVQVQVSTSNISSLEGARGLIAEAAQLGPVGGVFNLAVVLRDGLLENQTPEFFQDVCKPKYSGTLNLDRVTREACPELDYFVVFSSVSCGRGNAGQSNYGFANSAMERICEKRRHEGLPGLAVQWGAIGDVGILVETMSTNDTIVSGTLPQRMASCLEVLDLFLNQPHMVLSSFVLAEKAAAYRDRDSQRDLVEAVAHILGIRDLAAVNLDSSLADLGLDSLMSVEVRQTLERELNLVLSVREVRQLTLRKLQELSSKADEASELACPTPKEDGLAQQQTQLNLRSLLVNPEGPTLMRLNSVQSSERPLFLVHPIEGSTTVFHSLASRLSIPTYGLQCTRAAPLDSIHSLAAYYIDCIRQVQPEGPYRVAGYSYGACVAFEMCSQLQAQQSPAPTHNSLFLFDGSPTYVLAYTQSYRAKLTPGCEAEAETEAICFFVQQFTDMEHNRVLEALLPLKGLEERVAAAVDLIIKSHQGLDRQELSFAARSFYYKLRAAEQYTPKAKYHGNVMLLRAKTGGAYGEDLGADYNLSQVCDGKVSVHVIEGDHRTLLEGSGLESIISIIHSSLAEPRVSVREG
# Chain of Paired box protein Pax-8 (Q06710 whole entry): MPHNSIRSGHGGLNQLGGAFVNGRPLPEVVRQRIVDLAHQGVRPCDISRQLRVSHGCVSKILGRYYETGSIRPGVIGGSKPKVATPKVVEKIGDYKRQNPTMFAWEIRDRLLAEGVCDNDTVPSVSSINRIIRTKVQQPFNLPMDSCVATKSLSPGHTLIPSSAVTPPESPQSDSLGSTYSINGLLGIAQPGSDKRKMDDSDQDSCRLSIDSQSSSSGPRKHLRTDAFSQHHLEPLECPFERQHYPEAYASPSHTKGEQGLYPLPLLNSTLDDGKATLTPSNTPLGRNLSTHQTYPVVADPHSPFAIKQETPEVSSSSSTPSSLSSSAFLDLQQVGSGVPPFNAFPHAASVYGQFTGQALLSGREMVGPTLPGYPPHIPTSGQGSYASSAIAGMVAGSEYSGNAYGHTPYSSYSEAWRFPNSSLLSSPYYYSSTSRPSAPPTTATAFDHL
structure (smiles),measurement,setting,value
COc1ccc(S(=O)(=O)N2CCC(NC(=O)OCc3c(Cl)cccc3Cl)CC2)cc1,IC50,[1],7.91 µM (not active)
O=C1c2sc3nc4ccccc4n3c2C(=O)N1c1ccccc1Cl,EC50,[2],> 120 µM (not active)
same,EC50,H4,> 120 µM (not active)
same,EC50,[3],13.8 µM (active)
CCCN(CCC)C(=O)CC(c1ccccc1)c1ccc(C)cc1O (centres undefined),IC50,[1],> 50 µM (not active)
O=C(CSc1ccccn1)N/N=C/c1c[nH]c2ccccc12,IC50,[1],> 50 µM (not active)
COC(=O)N1CC=CC1(C)C(=O)NCc1ccc(C)o1 (centres undefined),AC50,Cytochrome P450 3A4,15.8 µM (inconclusive)
C=CCSSCC=C,AC50,Cytochrome P450 3A4,25.1 µM (inconclusive)
CSCCC(NC(=O)c1ccc(Cl)cc1Cl)C(=O)NNC(=O)c1csc(N2CCOCC2)n1 (centres undefined),IC50,[4],> 20 µM (inactive)
O=C(COc1ccc(Br)cc1CNC1CCCC1)Nc1ccccc1,EC50,[5],5.96 µM (active)
COc1ccc(C(CNC(=O)c2ccccc2SC)N(C)C)cc1 (centres undefined),EC50,[5],0.473 µM (active)
Nc1c(-c2ccc(Cl)cc2)nnn1-c1ccccc1,EC50,[2],0.217 µM (active)
same,EC50,H4,13.2 µM (active)
same,EC50,[3],0.135 µM (inconclusive)
Cn1c(=O)c2c(nc(SCCN3CCOCC3)n2Cc2ccc(F)cc2)n(C)c1=O,EC50,[2],0.262 µM (active)
same,EC50,H4,> 120 µM (not active)
same,EC50,[3],5.27 µM (active)
COc1ccc(OC)c(NC(=O)CSc2nc3ccccc3c3nc4ccccc4n23)c1,IC50,[1],> 50 µM (not active)
COC(=O)[C@]1(C)CC[C@@]2(C)CC[C@@]3(C)C4=CC=C5C(=CC(=O)C(O)=C5C)[C@@]4(C)CC[C@@]3(C)C2C1 (some centres undefined),AC50,Cytochrome P450 3A4,31.6 µM (inconclusive)
Cc1ccc2nc(N=C(N)NS(=O)(=O)c3ccc([N+](=O)[O-])cc3)nc(C)c2c1,IC50,Fatty acid synthase [6],12.2 µM (active)
same,EC50,[7],0.199 µM (active)
same,IC50,Fatty acid synthase [8],14.5 µM (active)
same,CC50,[9],35.2 µM (active)
same,EC50,[10],> 60 µM (not active)
CCCCCCC1=Cc2cc(OC)c(OC)cc2C(C2(C(=O)OCC)CCCC2=O)O1 (centres undefined),AC50,Cytochrome P450 3A4,3.16 µM (inconclusive)
CCCCN(CC)CCNC(=O)c1cc2cc3ccc(Cl)cc3nc2o1,EC50,[5],0.596 µM (active)
CN(C)C(CNc1ncnc2sc3c(c12)CCCC3)c1ccco1 (centres undefined),EC50,[5],3.35 µM (active)
Nc1ccc2c(c1)C(=O)Cc1ccccc1S2,IC50,[4],> 20 µM (inactive)
Cc1ccc(CNC(=O)C2CCCN(Cc3cnn(-c4ccccc4)c3-n3cccc3)C2)cc1 (centres undefined),EC50,[5],4.73 µM (active)
C=CCn1c(=O)c(C(=O)Nc2ccccc2S(N)(=O)=O)c(O)c2ccccc21,IC50,[4],> 20 µM (inactive)
CCCCN=C(S)Nc1cc([N+](=O)[O-])ccc1C,IC50,Fatty acid synthase [6],9.4 µM (active)
same,IC50,Fatty acid synthase [8],14.1 µM (active)
COc1ccc(-c2cc(=O)c3c(O)cc(O)c(-c4cc(-c5cc(=O)c6c(O)cc(O)cc6o5)ccc4OC)c3o2)cc1 [ISOGINKGETIN],AC50,Cytochrome P450 3A4,3.98 µM (inconclusive)
COc1cccc(NC(=O)c2nnn(CCc3ccccc3)c2N)c1,EC50,[2],6.28 µM (active)
same,EC50,H4,4.53 µM (active)
same,EC50,[3],6.24 µM (active)
CC(=O)N1[C@H](C)C=C[C@]1(Cc1ccccc1)C(=O)O,AC50,Cytochrome P450 3A4,31.6 µM (inconclusive)
NC(=O)c1c(NC(=O)C(=O)NCCCN2CCOCC2)sc2c1CCCC2,IC50,[4],> 20 µM (inactive)
CN(Cc1cccc(Cl)c1Cl)C(=O)c1cccc(S(=O)(=O)N2CCN(Cc3ccccc3)CC2)c1,AC50,[11],3.38 µM (active)
same,AC50,[12],55.6 µM (active)
same,AC50,[13],17.7 µM (active)
CSCCC(c1nnnn1Cc1ccccc1)N1CCC(n2c(O)nc3ccccc32)CC1 (centres undefined),AC50,Paired box protein Pax-8,0.538 µM (active)
COc1ccccc1N1CC(C(=O)Nc2cc(C(F)(F)F)ccc2N2CCCC2)CC1=O (centres undefined),IC50,Fatty acid synthase [6],6.81 µM (active)
same,IC50,Fatty acid synthase [8],7.17 µM (active)
CNCCc1n[nH]c(N)n1,EC50,[5],0.0667 µM (active)
COc1cccc(C2=CC(c3ccc(OC)c(OC)c3)NC(S)=N2)c1 (centres undefined),IC50,[1],2.81 µM (not active)
COc1ccc(C[C@H]2COC(=O)[C@@H]2Cc2ccc(OC3OC(CO)C(O)C(O)C3O)c(OC)c2)cc1OC (some centres undefined),AC50,[11],4.43 µM (active)
same,AC50,[12],48.3 µM (active)
same,AC50,[13],15.5 µM (active)
CC(=O)c1ccc(NC(=O)CCc2nnc3ccc(NCc4ccco4)nn23)cc1,EC50,[2],6.27 µM (active)
same,EC50,H4,> 120 µM (not active)
same,EC50,[3],11.2 µM (active)
same,EC50,[14],> 112 µM (not active)
same,EC50,[15],> 112 µM (not active)
O=C(CCNC(=O)c1ccc([N+](=O)[O-])cc1)NCc1ccccc1,IC50,Fatty acid synthase [6],11.3 µM (active)
same,IC50,Fatty acid synthase [8],10.4 µM (active)
Fc1cccc(Cn2cc(C(=S)N3CCCCC3)c3ccccc32)c1,IC50,[1],2.86 µM (not active)
Oc1ccc2c(c1)OC(c1ccc(O)c(O)c1)C(O)C2 (centres undefined),AC50,Cytochrome P450 3A4,25.1 µM (inconclusive)
Cc1ccc(NC(=O)c2ccc(S(=O)(=O)NCc3ccco3)cc2)nc1,EC50,[2],15.2 µM (active)
same,EC50,H4,49.7 µM (active)
same,EC50,[3],11.1 µM (active)
CC1(C)CC(=O)C2=CNc3ccccc3N=C2C1,EC50,[2],> 120 µM (not active)
same,EC50,H4,> 120 µM (not active)
same,EC50,[3],> 120 µM (not active)
CCC(C)(C)C1CCc2n[nH]c(C(=O)NCCCNC(=O)OC(C)(C)C)c2C1 (centres undefined),IC50,Fatty acid synthase [6],0.524 µM (active)
same,IC50,Fatty acid synthase [8],24.3 µM (inactive)
COc1ccc(C(CNC(=O)Cc2ccc(Cl)c(Cl)c2)N(C)C)cc1 (centres undefined),EC50,[5],0.299 µM (active)
CN(C)S(=O)(=O)c1ccc2c(c1)C(=O)c1cc(S(=O)(=O)N(C)C)ccc1CC2,IC50,Fatty acid synthase [6],0.176 µM (active)
same,IC50,Fatty acid synthase [8],0.166 µM (active)
